The values that follow come from patent US8173593B2, “Methods and compositions for emergency contraception using endothelin receptor antagonists” (The Population Council, Inc., priority 2005, dated 2012).

The test system of experiment [1] is endothelin-2. The experiment in a line: inhibition of endothelin-2 function.
Experiment [2] relates to superovulated mice. The experiment in a line: histological sections of ovaries collected 18 hours after hCG injection. The experiment is classed as in vivo. The procedure:
(§1) BQ788 was further tested to examine the manner in which this ETB antagonist reduced the number of oocytes. Histological sections of ovaries collected at 18 hours after hCG injection in superovulated mice that received either vehicle or BQ788 through i/p at 8 hours after hCG, were examined and found to have striking differences in the number of corpus lutea (photo not shown).

The subject of experiment [3] is superovulated mice. The experiment in a line: oocyte count after antagonist injection during superovulation. The following applies: for decrease in number of oocytes: time effect. The experiment is classed as in vivo. The protocol: Pharmacological blockers of the endothelin receptor system were implemented to elucidate the role of ET-2 during superovulation. JKC301 (ETRA antagonist) and BQ788 (ETB antagonist) were injected 6 hours after hCG injection and an oocyte count was tabulated. […] BQ788 treatment was further investigated and found to have a time effect. BQ788 posted a 39%, 58%, and 66% decrease in number of oocytes at 4, 6 and 8 hours, respectively, after hCG injection.
as §1

Consider `CCCC[C@@H](NC(=O)[C@@H](Cc1cn(C(=O)OC)c2ccccc12)NC(=O)[C@H](CC(C)(C)C)NC(=O)N1[C@H](C)CCC[C@@H]1C)C(=O)O` [BQ788, N-cis-2,6-dimethylpiperidinocarbonyl-L-gamma-methylleucyl-D-1-methoxycarbonyltryptophanyl-D-norleucine], for which, in experiment [1], the “function of endothelin-2” value is “inhibits function of endothelin-2”. In addition, in experiment [2] (given at 8 hours, a stage very close to the ovulation), the inhibition of ovulation entry is recorded as “inhibition of ovulation by blocking follicle rupture in the ovary”. Besides, in experiment [2] (i/p at 8 hours after hCG, ovaries collected at 18 hours after hCG, versus vehicle), the “number of corpus lutea and unruptured follicles in ovary sections” value is “few corpus lutea and numerous unruptured follicles”. In addition, the “decrease in the number of oocytes” value in experiment [3] (antagonist injected 6 hours after hCG injection, comparison of JKC301 and BQ788) is reported as 65%. Moreover, the “decrease in number of oocytes” value in experiment [3] (BQ788 given 4 hours after hCG injection) was found to be 39%; in experiment [3] (BQ788 given 6 hours after hCG injection), 58%; in experiment [3] (BQ788 given 8 hours after hCG injection), 66%.
